Reference: patent US20190343828A1, “CAMPTOTHECIN PEPTIDE CONJUGATES” (SEATTLE GENETICS, INC., priority 2018, published 2019)

Assays:
[1] = test system: B-lymphocyte cancer cells (U266); experiment: In vitro cytotoxicity, CellTiter-Glo 96 h, U266; conditions: Homo sapiens, U-266, read-out: Cytotoxic potency as free drug, IC50, U266
Experimental: (§2) In vitro potency was assessed on multiple cancer cell lines. All cell lines were authenticated by STR profiling at IDEXX Bioresearch and cultured for no more than 2 months after resuscitation. Cells cultured in log-phase growth were seeded for 24 hours in 96-well plates containing 150 μl RPMI 1640 supplemented with 20% FBS. Serial dilutions of antibody-drug conjugates in cell culture media were prepared at 4× working concentrations, and 50 μl of each dilution was added to the 96-well plates. Following addition of test articles, cells were incubated with test articles for 4 days at 37° C. After 96 hours, growth inhibition was assessed by CellTiter-Glo® (Promega, Madison, Wis.) and luminescence was measured on a plate reader.
(§3) Cell viability was determined by CellTiter-Glo staining after 96 h exposure to ADC. […] Ag1 is an antibody targeting a ubiquitous and readily internalizable antigen on cancer cells, Ag2 is cAC10 antibody targeting CD30(+) cancer cells, Ag3 is h1F6 antibody targeting CD70(+) cancer cells, Ag4 is hMEM102 antibody targeting CD48(+) cancer cells, Ag5 is h20F3 antibody targeting NTB-A expressing cancer cells, and h00 is a non-binding control antibody.

[2] = test system: B-lymphocyte cancer cells (SU-DHL-4); experiment: In vitro cytotoxicity, CellTiter-Glo 96 h, SU-DHL-4; conditions: Homo sapiens, SU-DHL-4, read-out: Cytotoxic potency as free drug, IC50, SU-DHL-4
Experimental: as §2, §3

[3] = test system: Burkitt's lymphoma cells (Ramos); experiment: In vitro cytotoxicity, CellTiter-Glo 96 h, Ramos; conditions: Homo sapiens, read-out: Cytotoxic potency as free drug, IC50, Ramos
Experimental: as §2
(§4) Cell viability was determined by CellTiter-Glo staining after 96 h exposure to ADC.

[4] = test system: renal carcinoma cells (786-O); experiment: In vitro cytotoxicity, CellTiter-Glo 96 h, 786-O; conditions: Homo sapiens, 786-0, read-out: Cytotoxic potency (IC50 class), 786-O
Experimental: as §2, §4

[5] = test system: multiple myeloma cells (MM.1R); experiment: In vitro cytotoxicity, CellTiter-Glo 96 h, MM.1R; conditions: read-out: Cytotoxic potency (IC50 class), MM.1R
Experimental: as §2, §3

[6] = test system: multiple drug resistant acute promyelocytic leukemia cells (HL-60/RV); experiment: In vitro cytotoxicity, CellTiter-Glo 96 h, HL60/RV; conditions: Homo sapiens, HL-60, read-out: Cytotoxic potency (IC50 class), HL60/RV
Experimental: as §2, §4

[7] = test system: acute promyelocytic leukemia cells (HL-60); experiment: In vitro cytotoxicity, CellTiter-Glo 96 h, HL-60; conditions: Homo sapiens, HL-60, read-out: Cytotoxic potency (IC50 class), HL-60
Experimental: as §2, §3

[8] = test system: pancreatic cancer cells (BxPC3); experiment: In vitro cytotoxicity, CellTiter-Glo 96 h, BxPC3; conditions: Homo sapiens, BXPC-3, read-out: Cytotoxic potency (IC50 class), BxPC3
Experimental: as §2, §4

[9] = test system: melanoma cells (SK-MEL-5); experiment: In vitro cytotoxicity, CellTiter-Glo 96 h, SK-MEL-5; conditions: Homo sapiens, SK-MEL-5, read-out: Cytotoxic potency as free drug, IC50, SK-MEL-5
Experimental: as §2, §3

[10] = test system: acute myeloid leukemia cells (MOLM13); experiment: In vitro cytotoxicity, CellTiter-Glo 96 h, MOLM13; conditions: Homo sapiens, MOLM-13, read-out: Cytotoxic potency as free drug, IC50, MOLM13
Experimental: as §2, §4

[11] = test system: Hodgkin's lymphoma cells (L540cy); experiment: In vitro cytotoxicity, CellTiter-Glo 96 h, L540cy; conditions: read-out: Cytotoxic potency (IC50 class), L540cy
Experimental: as §2, §4

[12] = test system: CD30+ parental DEL lymphoma cell line; experiment: In vitro cytotoxicity, CellTiter-Glo 96 h, DEL; type: cell-based; conditions: Table 2, CD30+ parental DEL
Experimental: (§1) The parental DEL lymphoma cell line was cultured in the presence of brentuximab vedotin to induce over-expression of the MDR phenotype, resulting in the DEL brentuximab vedotin resistant line (DEL-BVR). Brentuximab vedotin, which is Ag2-vc-MMAE (DAR=4) was included as a control. Ex_4-1 refers to MP-PEG4-VKG-7-MAD-MDCPT.

[13] = test system: CD30/MDR+ DEL-BVR cell line (DEL brentuximab vedotin resistant); experiment: In vitro cytotoxicity, CellTiter-Glo 96 h, DEL-BVR; type: cell-based; conditions: Table 2, CD30/MDR+ DEL-BVR
Experimental: as §1

[14] = 1000 ng/mL, relative to untreated cells
[15] = DAR in parenthesis of label, 96 h

Compound | IC50 [1] | IC50 [2] | IC50 [3] | IC50 [4] | IC50 [5] | IC50 [6] | IC50 [7] | IC50 [8] | IC50 [9] | IC50 [10] | IC50 [11] | percent cells remaining at highest concentration tested, DEL [12, 14] | IC50, DEL [12, 15] | percent cells remaining at highest concentration tested, DEL-BVR [13, 14] | IC50, DEL-BVR [13, 15]
CCCCCCc1c2c(nc3cc4c(cc13)OCO4)-c1cc3c(c(=O)n1C2)COC(=O)[C@]3(O)CC [Compound 6k] | 1 to 10 nM | 1 to 10 nM | 0.1 to 1 nM | 1 to 10 nM | 1 to 10 nM | 10 to 100 nM | 100 to 1000 nM | 1 to 10 nM | 1 to 10 nM | 10 to 100 nM | 1 to 10 nM |  |  |  | 
CC[C@@]1(O)C(=O)OCc2c1cc1n(c2=O)Cc2c-1nc1cc3c(cc1c2C(C)(C)C)OCO3 [Compound 6l] | 1 to 10 nM | 1 to 10 nM | 0.1 to 1 nM | 1 to 10 nM | 1 to 10 nM | 1 to 10 nM | 1 to 10 nM | 1 to 10 nM | 1 to 10 nM | 1 to 10 nM | 1 to 10 nM |  |  |  | 
CC[C@@]1(O)C(=O)OCc2c1cc1n(c2=O)Cc2c-1nc1cc3c(cc1c2C1CC1)OCO3 [Compound 6m] | 1 to 10 nM | 0.1 to 1 nM | 0.1 to 1 nM | 0.1 to 1 nM | 0.1 to 1 nM | 1 to 10 nM | 10 to 100 nM | 1 to 10 nM | 1 to 10 nM | 1 to 10 nM | 0.1 to 1 nM |  |  |  | 
CC[C@@]1(O)C(=O)OCc2c1cc1n(c2=O)Cc2c-1nc1cc3c(cc1c2CC(C)(C)C)OCO3 [Compound 6n] | 1 to 10 nM | 1 to 10 nM | 1 to 10 nM | 1 to 10 nM | 1 to 10 nM | 1 to 10 nM | 10 to 100 nM | 1 to 10 nM | 1 to 10 nM | 1 to 10 nM | 1 to 10 nM |  |  |  | 
CC[C@@]1(O)C(=O)OCc2c1cc1n(c2=O)Cc2cc3cc4c(cc3nc2-1)OCO4 [Compound 6o] | 1 to 10 nM | 1 to 10 nM | 0.1 to 1 nM | 1 to 10 nM | 1 to 10 nM | 10 to 100 nM | 100 to 1000 nM | 1 to 10 nM | 1 to 10 nM | 10 to 100 nM | 1 to 10 nM |  |  |  | 
CC[C@@]1(O)C(=O)OCc2c1cc1n(c2=O)Cc2c-1nc1cc3c(cc1c2C)OCO3 [Compound 6p] | 0.1 to 1 nM | 0.1 to 1 nM | 0.1 to 1 nM | 0.1 to 1 nM | 0.1 to 1 nM | 1 to 10 nM | 10 to 100 nM | 0.1 to 1 nM | 0.1 to 1 nM | 1 to 10 nM | 0.1 to 1 nM |  |  |  | 
CC[C@@]1(O)C(=O)OCc2c1cc1n(c2=O)Cc2c-1nc1cc(F)c(C)c3c1c2[C@@H](NC(=O)CO)CC3 [Compound 8a] | 10 to 100 nM | 1 to 10 nM | 1 to 10 nM | 1 to 10 nM | 1 to 10 nM | 10 to 100 nM | 100 to 1000 nM | 10 to 100 nM | 10 to 100 nM | 10 to 100 nM | 1 to 10 nM |  |  |  | 
CC[C@@]1(O)C(=O)OCc2c1cc1n(c2=O)Cc2c-1nc1cc(F)c(C)c3c1c2[C@@H](N)CC3 [Compound 8b] | 1 to 10 nM | 1 to 10 nM | 0.1 to 1 nM | 1 to 10 nM | 1 to 10 nM | 10 to 100 nM | 10 to 100 nM | 1 to 10 nM | 1 to 10 nM | 10 to 100 nM | 1 to 10 nM |  |  |  | 
CC[C@@]1(O)C(=O)OCc2c1cc1n(c2=O)Cc2c-1nc1cc3c(cc1c2CO)OCO3 [Compound 8c] | 1 to 10 nM | 0.1 to 1 nM | 0.1 to 1 nM | 1 to 10 nM | 1 to 10 nM | 1 to 10 nM | 10 to 100 nM | 1 to 10 nM | 1 to 10 nM | 1 to 10 nM | 0.1 to 1 nM |  |  |  | 
CCc1c2c(nc3ccc(O)cc13)-c1cc3c(c(=O)n1C2)COC(=O)[C@]3(O)CC [Compound 8d] | 1 to 10 nM | 1 to 10 nM | 10 to 100 nM | 1 to 10 nM | 1 to 10 nM | 10 to 100 nM | 1 to 10 nM | 1 to 10 nM | 1 to 10 nM | 1 to 10 nM | 10 to 100 nM |  |  |  | 
Brentuximab vedotin [Ag2-vcMMAE (4), reference compound] |  |  |  |  |  |  |  |  |  |  |  | (1) percent | 0.0005 µg/mL | (93) percent | >1 µg/mL
